Assay results taken from PMC8157262 (Pharmaceutics, 2021).
Like-named read-outs stand apart in the source and are kept apart here.

How the values were obtained:
[1] = in vivo; conditions: Sprague-Dawley, rat, 10 mg/kg
Protocol: In all cases, the treatment was administered intravenously for 1 min via the jugular vein (total injection volume of 4 mL/kg). Blood samples (approximately 0.12 mL for single drug administration and 0.22 mL for co-administration of both drugs) were taken from the carotid artery at 0 (before the start of injection), 1 (right after injection), 5, 15, 30, 60, 120, 180, 240, 360, 480, 600 and/or 720 min after the start of injection. […] Urine samples, collected for 24 h following injection, and gastrointestinal tract (including its contents and feces) samples, collected 24 h after injection, were prepared in accordance with previously reported methods.

[2] = cited from earlier work
[3] = test system: rat hepatic microsomes; conditions: for Vmax for the elimination of tofacitinib: liver microsomes, n = 3
[4] = test system: human carbonic anhydrase 1; conditions: interaction with acetazolamide; cited from earlier work
[5] = in vivo; conditions: Sprague-Dawley, rat; for bioavailability: F
[6] = test system: rat intestinal microsomes
[7] = Sprague-Dawley, rat, in vivo
[8] = test system: α-glycosidase; conditions: interaction with acarbose; cited from earlier work
[9] = test system: Candida albicans-infected mice; conditions: long-term administration to Candida albicans-infected mice; cited from earlier work
[10] = oral, healthy male adults; cited from earlier work
[11] = Protein binding of tofacitinib to fresh rat plasma (equilibrium dialysis); format: in vitro ADME; conditions: n = 5, read-out: Protein binding (bound fraction) (converted)
Protocol: Briefly, plasma was dialyzed against isotonic phosphate buffer (pH 7.4) in a 1 mL dialysis cell (Spectrum Medical Industries, Los Angeles, CA, USA).

[12] = in vitro; conditions: rat, liver microsomes
[13] = in vitro; conditions: rat, intestinal microsomes
[14] = rat hepatic microsomes, 20 μM voriconazole
[15] = rat intestinal microsomes, 20 μM voriconazole
[16] = pH 7.4, with voriconazole 20 μM

In the case of `C[C@@H](c1ncncc1F)[C@](O)(Cn1cncn1)c1ccc(F)cc1F` [voriconazole, Voriconazole], the MRT ([1]; iv) is reported as 6.67 ± 2.48 h, the AUC ([1]; iv, AUC) is reported as 31000 ng·h/mL and the MRT ([1]; iv, MRT) is reported as 7.03 h. For the same compound, the half-life ([1]; iv, Terminal half-life) was 5.23 ± 1.61 h, the F ([2]; human, in vivo) was “over 90%” and the Protein binding ([2]; human, in vivo) was “approximately 58%”. For the same compound, the half-life ([2]; human, in vivo) was “approximately 6 h”, the “Manner of inhibition of tofacitinib metabolism by voriconazole” value ([3]; Lineweaver–Burk and Dixon plots, rat hepatic microsomes) was “non-competitive manner” and the “Type of inhibition of human carbonic anhydrase 1” value [4] was “non-competitive inhibition”. It also gave a bioavailability [5] of 106%, an AUC ([5]; po, 20 mg/kg, AUC) of 65600 ng·h/mL and a Cmax ([5]; po, 20 mg/kg, Cmax) of 7820 ± 1130 ng/mL. For the same compound, the Tmax ([5]; po, 20 mg/kg) was 4.38 h, the “Manner of inhibition of tofacitinib metabolism by voriconazole” value ([6]; rat intestinal microsomes) was “non-competitive manner” and the Ki ([6]; read-out: Apparent Ki of voriconazole for the inhibition of tofacitinib metabolism, intestinal microsomes, non-competitive model, n = 3) was 26.2 ± 8.05 µM. For the same compound, the F [7] was 122% and the “Type of inhibition of α-glycosidase” value [8] was “non-competitive inhibition”.
In the case of `C[C@@H]1CCN(C(=O)CC#N)C[C@@H]1N(C)c1ncnc2[nH]ccc12` [tofacitinib, Tofacitinib], the “Survival rate of infected mice” value [9] is listed as “significantly reduce their survival rate”, the AUC ([1]; in vivo) is listed as 12300 ng·h/mL and the CL renal ([1]; in vivo) is listed as 3.61 ± 0.829 mL/min/kg. The AUC ([1]; iv, AUC) was 4630 ng·h/mL, the CL renal ([1]; iv, CLR) was 1.44 ± 0.678 mL/min/kg and the Vd ([1]; iv, Vss) was 1.21 ± 0.489 L/kg. For the same compound, the “AUC of tofacitinib higher when co-administered with fluconazole” value [10] was 79%, the “AUC of tofacitinib higher when combined with ketoconazole” value [10] was 103% and the Volume of distribution ([2]; tofacitinib oral, healthy subjects) was 1.24 L/kg. The Plasma protein binding ([2]; tofacitinib, healthy subjects) was “approximately 40%”, the “Absolute oral bioavailability (F)” value ([2]; tofacitinib, humans) was “approximately 74%” and the “Fraction processed by CYP2C19” value ([2]; tofacitinib, humans) was 20%. The “Fraction processed by CYP3A4” value ([2]; tofacitinib, humans) was “about 50%”, the fraction unbound at 8 h, 5 μg/mL ([11]; pH 7.4, tofacitinib 5 μg/mL in the absence of voriconazole) was 0.621 and the fraction unbound at 8 h, 5 μg/mL ([11]; pH 7.4, tofacitinib 5 μg/mL in the presence of voriconazole 5 μg/mL) was 0.639. For the same compound, the “Vmax for the elimination of tofacitinib” value ([3]; with 20 μM VCZ) was 1184 ± 470 pmol/min/mg protein, the “Vmax for the elimination of tofacitinib” value ([3]; without VCZ) was 2895 ± 319 pmol/min/mg protein and the “CLint of tofacitinib slower in the presence of voriconazole” value [3, 14] was 65.5%. The “Vmax of tofacitinib elimination slower in the presence of voriconazole” value [3, 14] was 59.1%, the bioavailability [5] was 71.2% and the CL renal ([5]; po, 20 mg/kg, CLR) was 5.36 ± 1.35 mL/min/kg. The Tmax ([5]; po, 20 mg/kg) was 1.46 h, the “Vmax for the elimination of tofacitinib” value ([6]; intestinal microsomes, with 20 μM VCZ, n = 3) was 212 ± 27.0 pmol/min/mg protein and the “Vmax for the elimination of tofacitinib” value ([6]; intestinal microsomes, without VCZ, n = 3) was 380 ± 86.1 pmol/min/mg protein. The “CLint of tofacitinib slower in the presence of voriconazole” value [6, 15] was 21.1%, the “Vmax of tofacitinib elimination slower in the presence of voriconazole” value [6, 15] was 44.2% and the Km ([12]; pH 7.4) was 124 ± 13.7 µM. For the same compound, the microsomal CLint ([12]; pH 7.4) was 23.3 ± 0.689 µL/min/mg, the Km [12, 16] was 147 ± 43.4 µM and the microsomal CLint [12, 16] was 8.05 ± 2.01 µL/min/mg. The F [7] was 72.4%, the “'true' fraction of the oral dose unabsorbed (Funabs)” value ([7]; po) was “approximately 0.162%” and the “Fraction of the oral dose absorbed” value ([7]; po) was “more than 99%”. For the same compound, the CLR ([7]; po, 20 mg/kg) was 0.310 ± 0.117 mL/min/kg, the Km ([13]; pH 7.4) was 43.1 ± 11.7 µM and the microsomal CLint ([13]; pH 7.4) was 8.94 ± 1 µL/min/mg. It also gave a Km [13, 16] of 30.1 ± 3.29 µM and a microsomal CLint [13, 16] of 7.05 ± 0.12 µL/min/mg.
